# According to patent US4925855A, “Imidazole derivatives and antimycotics containing them” (CL Pharma Aktiengesellschaft, priority 1986, dated 1990):
# Experiments:
# Assay type in all cases: cell-based
# Aspergillus fumigatus = experiment: MIC in serial dilution test, Aspergillus fumigatus; details: 20160 min, pH 6
# Protocol: (§1) The antimycotic activities of the compounds were measured by in vitro determination of the minimum inhibitory concentration (MIC) for yeasts, molds and dermatophytes.
# (§2) 6 dermatophytes, 2 yeasts and 4 molds were used for testing with fungi, as follows:
# Aspergillus fumigatus (Asp.fu.)
# (§3) The minimum inhibitory concentration (MIC) was determined in serial dilution tests in test tubes. The volume of the liquid nutrient medium in each test tube was 4.5 ml.
# (§4) The substances were dissolved in DMSO and diluted with sterile distilled water to 10 concentrations (100, 50, 25, 12.5, 6.25, 3.12, 1.56, 0.78, 0.39 and 0.19 μg/ml). 0.5 ml of each of these dilution steps was added to the liquid nutrient medium. Thus, a constant concentration of solvent in all the nutrient media was ensured, irrespective of the active compound concentration.
# (§5) A comparison solution which contained only the solvent in appropriate concentration was included when carrying out each of the tests.
# (§6) The individual strains were maintained on Sabouraud/beerwort agar slants and, before they were used in a test, they underwent a passage on a modified Sabouraud liquid nutrient medium. The strains were then harvested, washed and converted into a suspension of McFaerland 3 in the case of yeasts and molds and of McFaerland 4-5 in the case of dermatophytes.
# (§7) The amount of material inoculated (inoculum) was 100 μl/test tube (inoculated densities: yeasts […] of the liquid nutrient medium was 6.0. After inoculation had taken place the fungi were incubated at 22° C. for 14 days.
# (§8) The MIC was then determined. The concentration step at which growth was no longer visible on macroscopic inspection was used for the determination of the MIC. The comparison substance used was 1-(2-(2,4-dichlorophenyl)-2-(2,4-dichlorophenylmethoxy)ethyl)-1H-imidazoleas nitrate (compound A).
# Mucor mucedo plus = experiment: MIC in serial dilution test, Mucor mucedo plus; details: 336 h, pH 6, Mucor mucedo plus, pH 6.0, 22° C., 14 days, read-out: MIC values, Mu. mu+
# Protocol: as §1, §2
# Mucor mucedo plus (Mu.mu^+)
# as §3, §4, §5, §6, §7, §8
# Trichophyton verrucosum = experiment: MIC in serial dilution test, Trichophyton verrucosum; details: 336 h, pH 6, Trichophyton verrucosum, pH 6.0, 22° C., 14 days, read-out: MIC values, Tri. ve.
# Protocol: as §1, §2
# Trichophyton verrucosum (Tri.ve.)
# as §3, §4, §5, §6, §7, §8
# Mucor mucedo minus = experiment: MIC in serial dilution test, Mucor mucedo minus; details: 336 h, pH 6, Mucor mucedo minus, pH 6.0, 22° C., 14 days, read-out: MIC values, Mu. mu-
# Protocol: as §1, §2
# Mucor mucedo minus (Mu.mu^-)
# as §3, §4, §5, §6, §7, §8
# Candida tropicalis = experiment: MIC in serial dilution test, Candida tropicalis; details: 336 h, pH 6, Candida tropicalis, pH 6.0, 22° C., 14 days, read-out: MIC values, C. trop
# Protocol: as §1, §2
# Candida tropicalis (C.trop.)
# as §3, §4, §5, §6, §7, §8
# Epidermophyton floccosum = experiment: MIC in serial dilution test, Epidermophyton floccosum; details: 336 h, pH 6, Epidermophyton floccosum, pH 6.0, 22° C., 14 days, read-out: MIC values, Ep. flo
# Protocol: as §1, §2
# Epidermophyton floccosum
# as §3, §4, §5, §6, §7, §8
# Microsporum gypseum = experiment: MIC in serial dilution test, Microsporum gypseum; details: Nannizzia gypsea, 336 h; Microsporum gypseum; pH 6.0, 22° C., 14 days; read-out: MIC values, Mi. gyp
# Protocol: as §1, §2
# Microsporum gypseum (Mi.gyp.)
# as §3, §4, §5, §6, §7, §8
# [1] = tested on: Trichophyton mentagrophytes; experiment: MIC in serial dilution test, Trichophyton mentagrophytes; details: 336 h, pH 6, Trichophyton mentagrophytes, pH 6.0, 22° C., 14 days, read-out: MIC values, Tri. me.
# Protocol: as §1, §2
# Trichophyton mentagrophytes
# as §3, §4, §5, §6, §7, §8
# Candida albicans = experiment: MIC in serial dilution test, Candida albicans; details: 336 h, pH 6.0, 22° C., 14 days, read-out: MIC values, C. alb
# Protocol: as §1, §2
# Candida albicans (C.alb.)
# as §3, §4, §5, §6, §7, §8
# Trichophyton rubrum = experiment: MIC in serial dilution test, Trichophyton rubrum; details: 336 h, pH 6, Trichophyton rubrum, pH 6.0, 22° C., 14 days, read-out: MIC values, Tri. ru.
# Protocol: as §1, §2
# Trichophyton rubrum (Tri.ru.)
# as §3, §4, §5, §6, §7, §8
# Absidia ramosa = experiment: MIC in serial dilution test, Absidia ramosa; details: Lichtheimia ramosa, 336 h, pH 6, Absidia ramosa; pH 6.0, 22° C., 14 days; read-out: MIC values, Abs. ra.
# Protocol: as §1, §2
# Absidia ramosa (Abs.ra.)
# as §3, §4, §5, §6, §7, §8
# Microsporum canis = experiment: MIC in serial dilution test, Microsporum canis; details: 336 h, pH 6, Microsporum canis, pH 6.0, 22° C., 14 days, read-out: MIC values, Mi. can
# Protocol: as §1, §2
# Microsporum canis (Mi.can.)
# as §3, §4, §5, §6, §7, §8
structure (smiles),measurement,setting,value
Clc1ccc(C(Cn2ccnc2)NCCSc2ccc(Br)cc2)c(Cl)c1 (centres unmarked) [compound 4],"MIC values, Asp. fu.",Aspergillus fumigatus,"6,25 μg/ml"
Clc1ccc(C(Cn2ccnc2)NCCCSc2ccc(Br)cc2)c(Cl)c1 (centres unmarked) [compound 24],"MIC values, Asp. fu.",Aspergillus fumigatus,"0,39 μg/ml"
Clc1ccc(SCCCNC(Cn2ccnc2)c2cccs2)cc1 (centres unmarked) [compound 31],"MIC values, Asp. fu.",Aspergillus fumigatus,"12,5 μg/ml"
same,MIC,Mucor mucedo plus,12.5 µg/mL
same,MIC,Trichophyton verrucosum,3.12 µg/mL
same,MIC,Mucor mucedo minus,12.5 µg/mL
same,MIC,Candida tropicalis,25 µg/mL
same,MIC,Epidermophyton floccosum,3.12 µg/mL
same,MIC,Microsporum gypseum,6.25 µg/mL
same,MIC,[1],12.5 µg/mL
same,MIC,Candida albicans,12.5 µg/mL
same,MIC,Trichophyton rubrum,3.12 µg/mL
same,MIC,Absidia ramosa,2.5 µg/mL
same,MIC,Microsporum canis,25 µg/mL
Clc1ccc(SCCCNC(Cn2ccnc2)c2cccc3ccccc23)cc1 (centres unmarked) [compound 41],"MIC values, Asp. fu.",Aspergillus fumigatus,"3,12 μg/ml"
"Clc1ccc(SCCCNC(Cn2ccnc2)c2ccc(Cl)cc2Cl)cc1 (centres unmarked) [compound 20, 1-(2-(2,4-Dichlorophenyl)-2-(3-(4-chlorophenylthio)-propylamino)ethyl)-1H-imidazole]","MIC values, Asp. fu.",Aspergillus fumigatus,"3,12 μg/ml"
COc1ccc(SCCNC(Cn2ccnc2)c2ccc(Cl)cc2Cl)cc1 (centres unmarked) [compound 5],"MIC values, Asp. fu.",Aspergillus fumigatus,"12,5 μg/ml"
Fc1ccc(SCCCNC(Cn2ccnc2)c2ccc(Cl)cc2Cl)cc1 (centres unmarked) [compound 18],"MIC values, Asp. fu.",Aspergillus fumigatus,"12,5 μg/ml"
same,MIC,Mucor mucedo plus,12.5 µg/mL
same,MIC,Trichophyton verrucosum,0.39 µg/mL
same,MIC,Mucor mucedo minus,12.5 µg/mL
same,MIC,Candida tropicalis,6.25 µg/mL
same,MIC,Epidermophyton floccosum,3.12 µg/mL
same,MIC,Microsporum gypseum,3.12 µg/mL
same,MIC,[1],6.25 µg/mL
same,MIC,Candida albicans,12.5 µg/mL
same,MIC,Trichophyton rubrum,0.78 µg/mL
same,MIC,Absidia ramosa,6.25 µg/mL
same,MIC,Microsporum canis,6.25 µg/mL
Clc1ccc(C(Cn2ccnc2)NCCCSc2ccc3ccccc3c2)c(Cl)c1 (centres unmarked) [compound 27],"MIC values, Asp. fu.",Aspergillus fumigatus,"0,78 μg/ml"
Clc1ccc(C(Cn2ccnc2)NCCSc2ccc3ccccc3c2)c(Cl)c1 (centres unmarked) [compound 6],MIC,Mucor mucedo minus,12.5 µg/mL
Clc1ccc(SCCCNC(Cn2ccnc2)c2ccc(Br)cc2)cc1 (centres unmarked) [compound 11],"MIC values, Asp. fu.",Aspergillus fumigatus,"6,25 μg/ml"
